This is an account of results in US5837548A, “Treatment of inflammation by inhibition of lipid body formation” (Beth Israel Hospital, priority 1995, dated 1998).

In experiment [1] the test system is peritoneal macrophages from COX 1 knockout mice. The experiment is described as follows: lipid body formation in peritoneal macrophages from cyclooxygenase-1 knockout mice. The settings on record: for induction of lipid body formation in macrophages: cyclooxygenase-1 deficient mice, AA 3.7-15 μM or OA 2.5-10 μM. The format is cell-based, mouse. On the procedure: (§1) FIG. 4 is a graph illustrating the effects of arachidonic acid and oleic acid on lipid body formation in peritoneal macrophages from wild type (+/+) and cyclooxygenase-1 knockout (-/-) mice. The agonists AA and OA are represented by the square and circle symbols, respectively. The closed symbols represent the wild type mice; the open symbols represent the cyclooxygenase-1 knockout mice. Macrophages (10^6 /mL) were incubated with the agonists AA and OA at varying concentrations for an hour. Lipid bodies were enumerated using light microscopy following osmium staining. Each point represents the mean±SEM from fifty consecutively scanned macrophages.
(§2) Cyclooxygenase-1 and cyclooxygenase-2 knockout mice were generated as recently described (Morham et al., Cell 83:473-482 (1995); Langenbach et al., Cell 83:483-492 (1995)). All experiments were carried out with male 8-12 week old mice. Macrophages from cyclooxygenase genetically deficient mice and wild-type litter mates were obtained by lavaging the peritoneal cavity with 5 mL of cold RPMI containing heparin (20 IU/mL).
(§3) ^1 Peritoneal macrophages from wild type and COX 1 knockout mice were
(§4) pretreated with the NSAID or vehicle for 1h and then stimulated with
(§5) arachidonic acid (AA, 15 μM) or vehicle for 1h. Results are mean ±
(§6) SEM from fifty consecutively counted macrophages. The statistically

For experiment [2], the system named is macrophages from cyclooxygenase-2 deficient mice. The experiment is described as follows: lipid body formation in macrophages from cyclooxygenase-2 deficient mice. The format is cell-based, mouse. The settings on record: AA 3.7-15 μM or OA 2.5-10 μM. On the procedure: as §2
Experiment [3] deals with peritoneal macrophages from wild type mice. The experiment can be described thus: lipid body formation in peritoneal macrophages from wild type mice. Type of experiment: cell-based, mouse. The note with it: for induction of lipid bodies in macrophages: wild-type mouse, AA 3.7-15 μM or OA 2.5-10 μM. The procedure: as §1, §2, §3, §4, §5, §6
The test system of experiment [4] is human eosinophils. The experiment can be described thus: cis-unsaturated fatty acid-induced lipid body formation in human eosinophils. Type of experiment: cell-based. The procedure:
Vehicle alone is represented by the dark columns. AA and OA are represented by the striped and gray columns, respectively. Agonist plus the pretreatment with aspirin is represented by the cross-hatched columns. Cells (10^6 /mL) were pretreated with aspirin (10 μg/mL) or vehicle for one hour and then stimulated arachidonic acid (15 μM), oleic acid (10 μM) or vehicle for one hour. Lipid bodies were enumerated by light microscopy following osmium staining. Each point represents the mean±SEM from fifty consecutively counted cells. The statistically significant difference between the vehicle alone and the agonist is represented by a cross. Statistically significant differences due to pretreatment with aspirin are indicated by an asterisk.
Neutrophils were purified from fresh human blood obtained by venipuncture from healthy adult volunteers and collected into acidified citrate. After addition of 6% dextran 70 (McGaw, Irvine, Calif.), RBCs were allowed to sediment for 1 hour at room temperature. The leukocyte-rich supernatant was overlaid onto an equal volume of Ficoll-Paque gradient (Piscataway, N.J.), and centrifuged at 400×g for 20 min. PMNs (>95% pure, rest being eosinophils) were recovered from the pellet and washed in Ca^++ /Mg^++ free HBSS. Residual RBCs were lysed with hypotonic saline. Eosinophils (80% pure, the rest being neutrophils) were obtained from a donor with idiopathic hypereosinophilic syndrome using the same procedure as described above.
Human leukocytes (10^6 cells/mL) were incubated with varying concentrations of arachidonic acid (AA), oleic acid (OA) or vehicle at 37° C. in a 5% CO2 /95% O2 atmosphere, and after 1 hour leukocytes (10^5 cells per slide) were cytocentrifuged (550 rpm, 5 min) onto glass slides. During inhibitory studies, neutrophils were pretreated for 1 hour with varying concentrations of enzyme inhibitors, protein synthesis inhibitors, or vehicle as indicated. When PKC inhibitors were used, the pre-incubation time was reduced to 30 minutes to avoid toxic effects to the cells. The cell viability, determined by trypan blue dye exclusion at the end of each experiment, was always greater than 90%. Stock solutions for A23187, D609, U-73122, and indomethacin were prepared in DMSO and stored at -20° C. Aliquots were diluted in Ca^++ /Mg^++ fee HBSS to the indicated concentration immediately prior to use. […]
Results were expressed as mean±SEM and were analyzed statistically by means of the analysis of variance followed by the Newman-Keuls-Student test with the level of significance set at p<0.05. Correlation coefficients were determined by linear regression, and correlation analysis was performed by Fisher's r to z transformation with the level of significance set at p<0.05.

Experiment [5] deals with wild-type mouse neutrophils. The experiment is described as follows: lipid body formation in wild-type mouse neutrophils. Type of experiment: cell-based. The settings on record: AA 3.7-15 μM or OA 2.5-10 μM.
For experiment [6], the system named is neutrophils (arachidonic acid uptake). The experiment can be described thus: 14C-arachidonic acid uptake in arachidonic acid-stimulated neutrophils. The format is cell-based, human. The procedure:
Neutrophils (10^6 /mL) were labeled with ^14 C-arachidonic acid (0.01 μCi/sample) together with either vehicle, aspirin (10 μg/mL), indomethacin (1 μg/mL) or sodium salicylate (10 μg/mL) for 1 hour. After the incubation period, lipid body formation was elicited by arachidonic acid (15 μM). The cells were washed 3 times in Ca^++ /Mg^++ free HBSS and analysis of incorporated ^14 C-arachidonic acid in the cell pellet was performed by liquid scintillation counting.
^1 The cells were pretreated with ^14 Carachidonic acid (0.01
μCi/sample) plus vehicle, aspirin (10 μg/ml) , sodium salicylate (1
μg/ml) or indomethacin (1 μg/ml) 1 h before the incubation with
arachidonic acid (15 μM). Cells were washed 3 times before the analysi
of incorporated ^14 Carachidonic acid. Results are representative of
independent experiments.

The subject of experiment [7] is human eosinophils (PGE2 production). The experiment is described as follows: PGE2 production by human eosinophils (priming, A23187 stimulation, ELISA). The format is cell-based. The settings on record: 10 μg/mL pretreatment. The procedure:
FIG. 2B is a graph illustrating the effect of arachidonic acid (AA) and oleic acid (OA) on induction of lipid body formation (black) and priming effects (white) for enhanced prostaglandin E2 (PGE2) by human eosinophils. Eosinophils (10^6 /mL) were stimulated for one hour with arachidonic acid (3.7, 7.5, 15 μM) or oleic acid (2.5, 5, 10 μM). Lipid bodies were enumerated using light microscopy following osmium staining. The concentration of PGE2 in the supernatant was measured by ELISA after incubation with A23187 (0.5 μM) for 15 minutes at 37° C. Data are expressed as mean from 2 independent assays performed in duplicate.
After the incubation time, a sample was taken for lipid body enumeration and the cells were washed in Ca^++ /Mg^++ free HBSS. Leukocytes were resuspended in 1 mL of HBSS containing Ca^++ /Mg^++ and then stimulated with A23187 (0.5 μM) for 15 min. The reaction was stopped on ice, and the samples were centrifuged at 1500 rpm for 10 min at 4° C. The concentrations of PGE2, LTB4, and LTC4 in the supernatants were assayed by ELISA according to the manufacturer's instructions (Cayman, Ann Arbor, Mich.).
For orientation: ELISA stands for enzyme-linked immunosorbent assay.

The subject of experiment [8] is colorectal cancer. The settings on record: humans taking drug regularly vs persons not taking; cited from earlier work.

As for `CCCCC/C=C\C/C=C\C/C=C\C/C=C\CCCC(=O)O` [arachidonic acid], the “lipid bodies (mean ± SEM)/macrophage” value in experiment [1] (COX 1 knockout, AA 15 μM alone, 1 h, no NSAID) stood at 7.0 ± 0.5 lipid bodies/macrophage; in experiment [3] (wild type, AA 15 μM alone, 1 h, no NSAID), 6.8 ± 0.3 lipid bodies/macrophage. Also, the “induction of lipid body formation in macrophages” value in experiment [1] and in experiment [2] was “induced lipid body formation” in each case. Moreover, the “induction of lipid bodies in macrophages” value in experiment [3] is recorded as “can also be stimulated in vitro to produce lipid bodies”. Further, in experiment [4], the “increase in number of lipid bodies” value is “dose-dependent increase in the number of lipid bodies”. For the same molecule, the “induction of lipid bodies in neutrophils” value in experiment [5] is “can also be stimulated in vitro to produce lipid bodies”.

With `CC(=O)Oc1ccccc1C(=O)O` [aspirin], the “inhibition of 14C-arachidonic acid uptake” value in experiment [6] (arachidonic acid-stimulated cells, aspirin 10 μg/mL, sodium salicylate 10 μg/mL, indomethacin 1 μg/mL) was “failed to inhibit”. In experiment [6] (stimulus arachidonate 15 μM, drug 10 μg/ml), this molecule displayed a 14C-AA uptake of 6974 cpm. In addition, in experiment [7], the “inhibition of PGE2 production” value is reported as “inhibited PGE2 production”. Moreover, in experiment [4] (10 μg/mL), the “inhibition of arachidonic acid-induced lipid body formation” value was “significantly inhibited” and the “inhibition of oleic acid-induced lipid body formation” value was “significantly inhibited”. In addition, the “lower risk of developing colorectal cancer” value in experiment [8] is listed as 40-50%.

Turning to `CCCCCCCC/C=C\CCCCCCCC(=O)O` [oleic acid], the “induction of lipid body formation in macrophages” value in experiment [1] and in experiment [2] was “induced lipid body formation” throughout. Moreover, the “induction of lipid bodies in macrophages” value in experiment [3] is recorded as “can also be stimulated in vitro to produce lipid bodies”. In experiment [4], the “increase in number of lipid bodies” value is “dose-dependent increase in the number of lipid bodies”. Further, the “induction of lipid bodies in neutrophils” value in experiment [5] was “can also be stimulated in vitro to produce lipid bodies”.
